Each structure is given as a SMILES string. Converted amounts (≈) assume the structure as drawn.

A short description of data set [1]: Solubility profiling at various pHs. The format is physicochemical. Conditions: 0.15 M NaCl (aq), pH-adjusted, 25 °C, thermodynamic from solid. The protocol: Aqueous solubility was determined by suspending sufficient compound in water to give a maximum final concentration of ≧10 mg·ml^−1 of the parent free-form of the compound. The suspension was equilibrated at 25° C. for 24 hours then the pH was measured. The suspension was then filtered through a glass fibre C filter into a 96 well plate. The filtrate was then diluted by an appropriate factor. Quantitation was by HPLC with reference to a standard solution of approximately 0.1 mg·ml^−1 in DMSO. Different volumes of the standard, diluted and undiluted sample solutions were injected. The solubility was calculated using the peak areas determined by integration of the peak found at the same retention time as the principal peak in the standard injection.
The aqueous solubility was determined using the method described in Table 1. The pH was varied by the suspensions being made up in 0.15 M NaCl (aq) and the pH adjusted to the appropriate value with either dilute HCl or NaOH. The suspension was then allowed to equilibrate for two hours followed by checking the pH and readjustment if required, using either HCl or NaOH as appropriate. The suspension was then allowed to equilibrate for 24 hrs.

Another data set concerns the target T1, rat DP2 (Rattus norvegicus, UniProt Q6XKD3).
T1 sequence (Q6XKD3 1-403): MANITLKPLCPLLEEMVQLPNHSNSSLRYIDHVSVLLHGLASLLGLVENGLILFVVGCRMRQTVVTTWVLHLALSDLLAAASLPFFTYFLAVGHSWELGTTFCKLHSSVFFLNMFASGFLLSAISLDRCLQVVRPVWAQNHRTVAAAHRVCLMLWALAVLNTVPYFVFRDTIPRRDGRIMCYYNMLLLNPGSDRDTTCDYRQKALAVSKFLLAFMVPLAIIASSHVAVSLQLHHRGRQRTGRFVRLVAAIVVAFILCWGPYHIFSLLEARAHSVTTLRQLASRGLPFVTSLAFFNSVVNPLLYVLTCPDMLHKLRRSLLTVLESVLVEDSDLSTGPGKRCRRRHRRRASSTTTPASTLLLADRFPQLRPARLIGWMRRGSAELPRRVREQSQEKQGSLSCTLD
The experiment in a line: DP2 radioligand membrane binding assay, rat. As to conditions: read-out: average IC50, inhibition of radiolabeled PGD2 binding. The protocol:
HEK293 cells stably expressing recombinant human DP2 are resuspended in 10 mM Hepes, 7.4 containing 1 mM DTT, lysed and centrifuged at 75,000×g to pellet the membranes. The membranes are resuspended in 10 mM Hepes, 7.4 containing 1 mM DTT and 10% glycerol to approximately 5 mg protein/ml. […] The reactions are terminated by rapid filtration through Whatman GF/C glass fibre filter plates. […] After harvesting, the filter plates are washed 3 times with 1 ml cold Wash Buffer then dried. Scintillant is then added to the plates and the radioactivity retained on the filters is determined on a Packard TopCount (Perkin Elmer). Specific binding is determined as total radioactive binding minus non-specific binding in the presence of 10 μM PGD2. IC50s were determined using GraphPad prism analysis of drug titration curves. Mouse, rat and guinea pig DP2 receptors were also investigated.

For orientation: solubility means the concentration that dissolves in the medium under given conditions. Read a low solubility as little dissolved substance. What is called IC50 is the midpoint of a concentration-inhibition curve. For `CCN(Cc1cc(C(F)(F)F)ccc1-c1cc(CC(=O)O)ccc1OC)C(=O)NCc1ccccc1` [Compound 1, [2′-(3-benzyl-1-ethyl-ureidomethyl)-6-methoxy-4′-trifluoromethyl-biphenyl-3-yl]-acetic acid], the solubility at 24 h in data set [1] (pH 5.6, saline or isotonic, Media pH 6, original pH 6.02, final pH 5.60) was found to be 160 µg/mL (≈ 320 µM); in data set [1] (saline or isotonic, Media pH 1, original pH 1.15, final pH 1.15), 6.9 µg/mL (≈ 13.8 µM); in data set [1] (saline or isotonic, Media pH 2, original pH 2.0, final pH 2.0) it was 1.6 µg/mL (≈ 3.2 µM); in data set [1] (saline or isotonic, Media pH 3, original pH 3.01, final pH 3.1), 2.2 µg/mL (≈ 4.4 µM); in data set [1] (saline or isotonic, Media pH 4, original pH 3.97, final pH 4.22), 3.5 µg/mL (≈ 6.99 µM); in data set [1] (saline or isotonic, Media pH 5, original pH 5.0, final pH 5.07), 53 µg/mL (≈ 106 µM). Moreover, the solubility at 24 h stood at 590 µg/mL (≈ 1180 µM) in data set [1] (saline or isotonic, Media pH 7, original pH 7.03, final pH 6.47) and 2200 µg/mL (≈ 4400 µM) in data set [1] (saline or isotonic, Media pH 8, original pH 8.09, final pH 7.07). The IC50 on rat DP2 came out at 0.0104 µM.

The values above are taken from patent US9572785B2, “DP2 antagonist and uses thereof” (Brickell Biotech, Inc., priority 2009, dated 2017).
